In patent US20240174662A1, “SMALL MOLECULE INHIBITORS OF SALT INDUCIBLE KINASES” (Janssen Biotech, Inc., priority 2021, published 2024):

Molecular target: SIK2 (Homo sapiens (Human), UniProt Q9H0K1)
Test: SIK2 Enzymatic Assay Version 2 (High ATP)
Assay type: biochemical
Conditions: 3 mM ATP and 200 μM HDAC5tide final, ADP-Glo Max luminescence
Procedure: All steps were performed at room temperature. Compounds were pre-plated onto an assay plate using an Echo acoustic dispenser (Labcyte, […] or […]) at 80 nL per well. Enzyme prepared in assay buffer at 6 nM (2× final concentration) was added at 4 μL per well using the Multidrop Combi (Thermo Fisher-used for all additions in this assay) to the assay plate, spun for 1 min at 1000 rpm (Allegra 6KR Beckman Coulter centrifuge), and incubated with compound for 30 minutes. […] ADP-Glo Max Reagent (prepared and aliquoted as per manufacturer instructions) was then added at 8 μL per well, spun and incubated for 2 hours. ADP-Glo Max Detection (prepared and aliquoted as per manufacturer instructions) was added at 8 μL per well to the assay plate, which was spun and incubated for 1 hour. The plate was then read on the Pherastar (BMG Labtech) using a luminescence read. Gain was set between 2200-2500.

SIK2, sequence (Q9H0K1 whole entry, species assumed): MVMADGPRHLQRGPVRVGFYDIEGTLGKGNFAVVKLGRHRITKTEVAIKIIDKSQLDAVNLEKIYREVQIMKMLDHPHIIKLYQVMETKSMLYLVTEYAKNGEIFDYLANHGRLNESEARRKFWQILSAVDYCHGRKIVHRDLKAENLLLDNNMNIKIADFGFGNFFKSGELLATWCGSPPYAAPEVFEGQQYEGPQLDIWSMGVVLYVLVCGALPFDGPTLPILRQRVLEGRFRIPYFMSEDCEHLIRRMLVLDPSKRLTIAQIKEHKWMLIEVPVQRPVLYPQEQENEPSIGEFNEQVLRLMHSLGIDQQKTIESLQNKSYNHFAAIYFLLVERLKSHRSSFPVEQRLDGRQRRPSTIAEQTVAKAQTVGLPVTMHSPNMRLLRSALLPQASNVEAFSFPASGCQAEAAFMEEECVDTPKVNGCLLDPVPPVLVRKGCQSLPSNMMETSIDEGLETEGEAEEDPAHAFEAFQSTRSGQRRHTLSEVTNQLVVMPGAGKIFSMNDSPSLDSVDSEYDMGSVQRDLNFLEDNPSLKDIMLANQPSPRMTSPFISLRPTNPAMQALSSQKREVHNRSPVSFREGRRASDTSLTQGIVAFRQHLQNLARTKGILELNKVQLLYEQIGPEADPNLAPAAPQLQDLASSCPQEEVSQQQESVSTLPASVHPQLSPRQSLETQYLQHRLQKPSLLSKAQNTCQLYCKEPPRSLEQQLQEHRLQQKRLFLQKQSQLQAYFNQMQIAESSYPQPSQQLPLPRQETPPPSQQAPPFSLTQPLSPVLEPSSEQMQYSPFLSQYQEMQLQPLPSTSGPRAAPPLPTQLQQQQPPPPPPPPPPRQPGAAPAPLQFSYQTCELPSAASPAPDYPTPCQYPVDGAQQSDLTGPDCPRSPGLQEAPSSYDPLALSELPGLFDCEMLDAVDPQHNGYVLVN

SMILES	IC50 [nM]
CN1CC2(CCOCC2)[C@@H]1COc1cnn(C)c1-c1ccn2nc(NC(=O)C3CC3)cc2c1 (single isomer, unassigned) [Example 58, (*R)—N-(5-(1-methyl-4-((2-methyl-7-oxa-2-azaspiro[3.5]nonan-1-yl)methoxy)-1H-pyrazol-5-yl)pyrazolo[1,5-a]pyridin-2-yl)cyclopropanecarboxamide]	57.8
CN1CC2(CCOCC2)[C@H]1COc1cnn(C)c1-c1ccn2nc(NC(=O)C3CC3)cc2c1 (single isomer, unassigned) [Example 59, (*S)—N-[5-[2-methyl-4-[(2-methyl-7-oxa-2-azaspiro[3.5]nonan-3-yl)methoxy]pyrazol-3-yl]pyrazolo[1,5-a]pyridin-2-yl]cyclopropanecarboxamide]	690
CCN1CC2(CC2)[C@H]1COc1cnn(C)c1-c1ccn2nc(NC(=O)C3CC3)cc2c1 (single isomer, unassigned) [Example 67, (*S)—N-[5-[4-[(5-ethyl-5-azaspiro[2.3]hexan-6-yl)methoxy]-2-methyl-pyrazol-3-yl]pyrazolo[1,5-a]pyridin-2-yl]cyclopropanecarboxamide]	52.1
CN1CC[C@@H]1COc1cnn(C)c1-c1ccn2nc(NC(=O)[C@H]3C[C@@H]3c3ccccc3)cc2c1 (single isomer, unassigned) [Example 156, (1*S, 2*S)—N-[5-[2-methyl-4-[((R)-1-methylazetidin-2-yl)methoxy]pyrazol-3-yl]pyrazolo[1,5-a]pyridin-2-yl]-2-phenyl-cyclopropanecarboxamide]	3.1
CN1CC[C@@H]1COc1cnn(C)c1-c1ccn2nc(NC(=O)[C@@H]3C[C@H]3c3ccccc3)cc2c1 (single isomer, unassigned) [Example 157, (1*R,2*R)—N-[5-[2-methyl-4-[((R)1-methylazetidin-2-yl)methoxy]pyrazol-3-yl]pyrazolo[1,5-a]pyridin-2-yl]-2-phenyl-cyclopropanecarboxamide]	11.1
CN1CC[C@@H]1COc1cnn(C)c1-c1ccn2nc(NC(=O)[C@H]3C[C@H]3c3ccccc3)cc2c1 (single isomer, unassigned) [Example 159, (1*S,2*R)—N-(5-(1-methyl-4-(((R)-1-methylazetidin-2-yl)methoxy)-1H-pyrazol-5-yl)pyrazolo[1,5-a]pyridin-2-yl)-2-phenylcyclopropane-1-carboxamide]	24.2
Cn1ncc(CO[C@@H]2CNCC2(F)F)c1-c1ccn2nc(NC(=O)C3CC3)cc2c1 (single isomer, unassigned) [Example 189, (*R)—N-[5-[4-[(4,4-difluoropyrrolidin-3-yl)oxymethyl]-2-methyl-pyrazol-3-yl]pyrazolo[1,5-a]pyridin-2-yl]cyclopropanecarboxamide]	12
C[C@H]1CNC[C@H]1OCc1cnn(C)c1-c1ccn2nc(NC(=O)C3CC3)cc2c1 (single isomer, unassigned) [Example 194, (3*S,4*S)—N-[5-[2-methyl-4-[(4-methylpyrrolidin-3-yl)oxymethyl]pyrazol-3-yl]pyrazolo[1,5-a]pyridin-2-yl]cyclopropanecarboxamide]	4.7
C[C@H]1CN(C)C[C@H]1OCc1cnn(C)c1-c1ccn2nc(NC(=O)C3CC3)cc2c1 (single isomer, unassigned) [Example 195, (3*S,4*S)—N-[5-[4-[(1,4-dimethylpyrrolidin-3-yl)oxymethyl]-2-methyl-pyrazol-3-yl]pyrazolo[1,5-a]pyridin-2-yl]cyclopropanecarboxamide]	3.5
C[C@@H]1CNC[C@@H]1OCc1cnn(C)c1-c1ccn2nc(NC(=O)C3CC3)cc2c1 (single isomer, unassigned) [Example 196, (3*R, 4*R)—N-[5-[2-methyl-4-[(4-methylpyrrolidin-3-yl)oxymethyl]pyrazol-3-yl]pyrazolo[1,5-a]pyridin-2-yl]cyclopropanecarboxamide]	24.7
C[C@@H]1CN(C)C[C@@H]1OCc1cnn(C)c1-c1ccn2nc(NC(=O)C3CC3)cc2c1 (single isomer, unassigned) [Example 197, (3*R, 4*R)—N-[5-[4-[(1,4-dimethylpyrrolidin-3-yl)oxymethyl]-2-methyl-pyrazol-3-yl]pyrazolo[1,5-a]pyridin-2-yl]cyclopropanecarboxamide]	28.1
COC1CNC[C@@H]1Oc1noc(C)c1-c1ccn2nc(NC(=O)C3CC3)cc2c1 (single isomer, unassigned) [Example 202, N-(5-(3-(((3*S,4*R)-4-methoxypyrrolidin-3-yl)oxy)-5-methylisoxazol-4-yl)pyrazolo[1,5-a]pyridin-2-yl)cyclopropanecarboxamide]	12.3
CO[C@@]1(COc2noc(C)c2-c2ccn3nc(NC(=O)C4CC4)cc3c2)CCNC1 (single isomer, unassigned) [Example 209, (*S)—N-(5-(3-((3-methoxypyrrolidin-3-yl)methoxy)-5-methylisoxazol-4-yl)pyrazolo[1,5-a]pyridin-2-yl)cyclopropanecarboxamide]	14.9
Cc1onc(O[C@H]2CNCC2F)c1-c1ccn2nc(NC(=O)C3CC3)cc2c1 (single isomer, unassigned) [Example 210, N-(5-(3-(((3*S,4*R)-4-fluoropyrrolidin-3-yl)oxy)-5-methylisoxazol-4-yl)pyrazolo[1,5-a]pyridin-2-yl)cyclopropanecarboxamide]	7.5
Cc1onc(O[C@@H]2CCNC[C@@H]2F)c1-c1ccn2nc(NC(=O)C3CC3)cc2c1 (single isomer, unassigned) [Example 215, N-(5-(3-(((3*S,4*R)-3-fluoropiperidin-4-yl)oxy)-5-methylisoxazol-4-yl)pyrazolo[1,5-a]pyridin-2-yl)cyclopropanecarboxamide]	27.5
Cc1onc(O[C@@H]2CCNC[C@H]2F)c1-c1ccn2nc(NC(=O)C3CC3)cc2c1 (single isomer, unassigned) [Example 216, N-(5-(3-(((3*R,4*S)-3-fluoropiperidin-4-yl)oxy)-5-methylisoxazol-4-yl)pyrazolo[1,5-a]pyridin-2-yl)cyclopropanecarboxamide]	29.6
Cc1onc(O[C@H]2C[C@@H]3C[C@H]2CN3)c1-c1ccn2nc(NC(=O)C3CC3)cc2c1 (single isomer, unassigned) [Example 217, N-(5-(3-(((1*S,4*S,5*R)-2-azabicyclo[2.2.1]heptan-5-yl)oxy)-5-methylisoxazol-4-yl)pyrazolo[1,5-a]pyridin-2-yl)cyclopropanecarboxamide]	24.1
Cc1onc(O[C@@H]2CCNC3(CCC3)C2)c1-c1ccn2nc(NC(=O)C3CC3)cc2c1 (single isomer, unassigned) [Example 218, (*R)—N-[5-[3-(9-azaspiro[3.5]nonan-6-yloxy)-5-methyl-isoxazol-4-yl]pyrazolo[1,5-a]pyridin-2-yl]cyclopropanecarboxamide]	49.5
Cc1onc(O[C@@H]2CCN(C)C3(CCC3)C2)c1-c1ccn2nc(NC(=O)C3CC3)cc2c1 (single isomer, unassigned) [Example 219, (*R)—N-[5-[5-methyl-3-[(9-methyl-9-azaspiro[3.5]nonan-6-yl)oxy]isoxazol-4-yl]pyrazolo[1,5-a]pyridin-2-yl]cyclopropanecarboxamide]	44.3
Cc1onc(O[C@H]2CN[C@H]3CCCO[C@H]32)c1-c1ccn2nc(NC(=O)C3CC3)cc2c1 (single isomer, unassigned) [Example 228, N-(5-(5-methyl-3-(((3*S,3a*R,7a*S)-octahydropyrano[3,2-b]pyrrol-3-yl)oxy)isoxazol-4-yl)pyrazolo[1,5-a]pyridin-2-yl)cyclopropanecarboxamide]	16.4
C[C@@H]1CNC[C@@H]1Oc1cnn(C)c1-c1ccn2nc(NC(=O)C3CC3)cc2c1 (single isomer, unassigned) [Example 238, (3*R, 4*R)—N-[5-[2-methyl-4-(4-methylpyrrolidin-3-yl)oxy-pyrazol-3-yl]pyrazolo[1,5-a]pyridin-2-yl]cyclopropanecarboxamide]	34.8
CO[C@]1(COc2cnn(C(F)F)c2-c2ccn3nc(Nc4cc(C)nc(C)n4)cc3c2)CCNC1 (single isomer, unassigned) [Example 261, (*R)-5-(1-(difluoromethyl)-4-((3-methoxypyrrolidin-3-yl)methoxy)-1H-pyrazol-5-yl)-N-(2,6-dimethylpyrimidin-4-yl)pyrazolo[1,5-a]pyridin-2-amine]	5.5
Cc1cc(Nc2cc3cc(-c4c(OC[C@@]5(F)CCNC5)cnn4C(F)F)ccn3n2)nc(C)n1 (single isomer, unassigned) [Example 262, (*R)-5-(1-(difluoromethyl)-4-((3-fluoropyrrolidin-3-yl)methoxy)-1H-pyrazol-5-yl)-N-(2,6-dimethylpyrimidin-4-yl)pyrazolo[1,5-a]pyridin-2-amine]	4.7
Cc1cc(Nc2cc3cc(-c4c(OC[C@]5(F)CCNC5)cnn4C(F)F)ccn3n2)nc(C)n1 (single isomer, unassigned) [Example 263, (*S)-5-(1-(difluoromethyl)-4-((3-fluoropyrrolidin-3-yl)methoxy)-1H-pyrazol-5-yl)-N-(2,6-dimethylpyrimidin-4-yl)pyrazolo[1,5-a]pyridin-2-amine]	40.2
Cc1cc(Nc2cc3cc(-c4c(OC[C@H]5COC6(CCCC6)O5)cnn4C)ccn3n2)nc(C)n1 (single isomer, unassigned) [Example 299, (*S)—N-(2,6-dimethylpyrimidin-4-yl)-5-[4-(6,9-dioxaspiro[4.4]nonan-8-ylmethoxy)-2-methyl-pyrazol-3-yl]pyrazolo[1,5-a]pyridin-2-amine]	31.1
